Experiments:
BMDC = assay: EBI3 and IL-27p28 mRNA in BMDC pretreated with MAPK/MEK1/2 inhibitors, then TriDAP and LPS or CpG; type: cell-based, murine
Experimental: BMDC (1×10^6) were pretreated with either the MAPK inhibitor, SB203580 ([…]) or the MEK1/2 inhibitor, U0126 ([…]) for 30 minutes prior to stimulation with TriDAP […] or medium alone. After 24 hours the cells were then stimulated with LPS (lipopolysaccharide) (100 ng/ml), CpG ([…]) or medium alone. EBI3 and IL-27p28 mRNA were evaluated by real time PCR normalized to 18S rRNA. Data are shown as fold induction over DC cultured in medium only (FIG. 9 (a) and FIG. 9 (b)).

NF-κB = settings: higher than iE-DAP; previously shown; cited from earlier work
[1] = system: dendritic cells activating Th17 cells; assay: IL-17 of CD4 T cells cultured with LPS-stimulated dendritic cells with and without TriDAP; type: cell-based, mice; settings: TriDAP 100 μg/ml; LPS 10 or 100 ng/ml; KLH 20 μg/ml; 72 hours
Experimental: CD4 T cells from mice immunized with MOG and LPS, were cultured in vitro with dendritic cells stimulated with LPS (10 or 100 ng/ml) with and without TriDAP (100 μg/ml) in the presence of KLH (20 μg/ml). Supernatants were collected after 72 hours and IL-17 concentrations were quantified by ELISA. *P<0.05, ***P<0.001, with and without TriDAP.

[2] = system: Dendritic cells cultured from human PBMC; assay: IL-27 and IL-10 ELISA in dendritic cells cultured from human PBMC; type: cell-based; settings: 24 hours
Experimental: Dendritic cells cultured from human PBMC with IL-4 and GM-CSF were stimulated with TriDap (100 μg/ml), LPS (10 or 100 ng/ml), LPS and TriDAP or medium only. Supernatants were collected after 24 hours and IL-27 and IL-10 concentrations were quantified by ELISA. **P<0.01, ***P<0.001, with versus without TriDAP.

EBI3 mRNA = EBI3 mRNA (real time PCR) in inguinal lymph nodes 72 hours post EAE induction; type: in vivo; settings: Tri-DAP 100 μg/mouse days 0, 1, 2, vs control mice
Experimental: EAE was induced in C57BL/6 mice by subcutaneous injection with 150 μg of MOG35-55 in CFA supplemented with 4 mg/ml H37 Ra M. tuberculosis on day 0. All mice were injected i.p with PT on days 0 and 2. One group of mice were untreated and the second group were given Tri-DAP (100 μg/mouse) given on day 0 in MOG/CFA emulsion and again on days 1 and 2. Three mice from each group were sacrificed 72 hours post EAE induction. The inguinal lymph nodes were removed and collected in Trizol. EBI3 mRNA was evaluated by real time PCR normalized to 18S rRNA. Data are shown as fold induction over naïve C57BL/6 inguinal lymph nodes (FIG. 7).

[3] = system: experimental autoimmune encephalomyelitis (EAE) in C57BL/6 mice; assay: EAE induced with MOG35-55/CFA and pertussis toxin, clinical score and body weight; type: in vivo
Experimental: EAE was induced in C57BL/6 mice by subcutaneous (s.c) injection with 150 μg of MOG35-55 in CFA supplemented with 4 mg/ml H37 Ra M. tuberculosis on day 0. All mice were injected intra-peritoneally (i.p) with Pertussis toxin (PT) on days 0 and 2. One group of mice were untreated and the second group were given Tri-DAP (100 μg/mouse) on day 0 in MOG/CFA emulsion and again on days 1, 2 and every 2 days thereafter. Clinical scores were assessed daily and body weights were recorded. Disease severity was graded as follows: grade 0: normal, grade 1: limp tail, grade 2: wobbly gait; grade 3: hind limb weakness; grade 4: hind limb paralysis; grade 5: tetraparalysis/death. † indicates control mice were sacrificed due to severity of EAE disease.

Spleen cells = assay: TLR agonist induced cytokines (ELISA) of spleen cells from treated mice; type: in vivo; settings: TriDAP 100 μg/mouse/day i.p. 5 days vs PBS; LPS, CpG or Pam3Csk; 24 hours
Experimental: (§1) Mice treated with either PBS or TriDAP (100 μg/mouse/day i.p.) for 5 days. Spleen cells ([…]; 1×10^6/ml) were stimulated with medium alone (control), or with a Toll-like Receptor agonist selected from the following: the TLR4 agonist LPS (lipopolysaccharide) (100 ng/ml), the TLR9 agonist CpG (5 μg/ml), or the TL2 agonist Pam3Csk (500 ng/ml). Supernatants were collected after 24 hours and cytokine concentrations were quantified by ELISA.

Bone marrow derived DC = assay: EBI3 and IL-27p28 mRNA in bone marrow derived DC stimulated with TLR agonists; type: cell-based, murine; settings: Tri-DAP 100 μg/ml 24 hours before LPS 10 ng/ml for 6 hours
Experimental: Bone marrow derived DC (1×10^6 cell/ml) were pretreated with Tri-DAP (100 μg/ml) for 24 hours prior to stimulation with the TLR agonists LPS (10 ng/ml) and CpG (5 μg/ml), and the MOG35-55 peptide (20 μg/ml) or medium alone (control) for 6 hours. EBI3 (FIG. 8 (a)) and IL-27p28 (FIG. 8 (b)) mRNA were evaluated by real time PCR normalized to 18S rRNA. Data are shown as fold induction over DC cultured in medium only.

[4] = system: Peritoneal exudate cells (PECs); assay: TLR agonist induced cytokines (ELISA) of peritoneal exudate cells from treated mice; type: in vivo; settings: TriDAP 100 μg/mouse/day i.p. 5 days vs PBS; LPS, CpG or Pam3Csk; 24 hours
Experimental: as §1, with “Mice were” for “Mice”, “Peritoneal exudate” for “Spleen”

[5] = U0126 (5 mM) 30 minutes before TriDAP, LPS 100 ng/ml after 24 hours
[6] = TriDap 100 μg/ml with LPS 10 or 100 ng/ml

C[C@H](N)C(=O)N[C@H](CCC(=O)N[C@@H](CCC[C@@H](N)C(=O)O)C(=O)O)C(=O)O [Tri-DAP, L-alanyl-γ-D-glutamyl-meso-diaminopimelic acid]
Tri-DAP synergy with LPS for EBI3 gene expression under inhibition of ERK (BMDC; [5]): greatly enhances
Tri-DAP synergy with LPS for IL-27p28 gene expression under inhibition of ERK (BMDC; [5]): greatly enhances
Tri-DAP induced or Tri-DAP and TLR agonist induced IL-27 production on addition of an ERK inhibitor (BMDC; dendritic cells, ERK inhibitor added): significantly enhances
ability to activate NF-κB relative to iE-DAP (NF-κB): 3 fold
ability of dendritic cells to activate IL-17 production by CD4 T cells [1]: significant reduction
IL-27 expression by human derived dendritic cells ([2]; TriDAP 100 μg/ml alone, without TLR agonist): express IL-27
IL-10 production by human dendritic cells ([2]; TriDap 100 μg/ml alone): Induces
IL-27 expression on co-stimulation with a Toll-like Receptor agonist [2, 6]: significant enhanced
TLR-induced IL-10 production by human dendritic cells [2, 6]: Enhances
EBI3 gene expression in inguinal lymph nodes (EBI3 mRNA): strong fold increase
weight loss ([3]; C57BL/6 EAE mice, Tri-DAP 100 μg/mouse vs untreated control): dramatic weight loss in the control mice when compared to the Tri-DAP treated mice
first clinical signs of EAE disease ([3]; C57BL/6 mice, Tri-DAP 100 μg/mouse day 0 in MOG/CFA emulsion, days 1, 2 and every 2 days, untreated mice 5-6 days): 11 days post induction
severity of EAE disease (clinical score) ([3]; C57BL/6 mice, Tri-DAP 100 μg/mouse, untreated peaked at 3.5-4 by day 12): lower than that observed in the untreated control mice
IL-10 secreted by spleen cells after re-stimulation with TLR agonists (Spleen cells): higher concentrations
IL-27 secreted by spleen cells after re-stimulation with TLR agonists (Spleen cells): higher concentrations
TGF-beta secreted by spleen cells after re-stimulation with TLR agonists (Spleen cells): higher concentrations
LPS induced EBI3 gene expression (Bone marrow derived DC): enhancement
LPS induced IL-27p28 gene expression (Bone marrow derived DC): enhancement
IL-10 secreted by PEC after re-stimulation with TLR agonists [4]: higher concentrations
TGF-beta secreted by PEC after re-stimulation with TLR agonists [4]: higher concentrations
